The source made the active and inactive calls. The calls are words filed in the database; no cut-off is given here.
Assays:
[1] = AUC (0 to infinity) in Sprague-Dawley rat at 10 mg/kg, po by LC-MS/MS analysis; format: ADME, organism-based; design: dose 10 mg/kg, time infinity, route oral; conditions: in vivo
Mus musculus [2] = experiment: (§1) Immunostimulatory activity in mouse B16/F10 cells implanted BALB/c mouse assessed as increase in activation of tumor-microenvironment mediated activated cytotoxic T cells in tumor by measuring CD8-positive cell population at 25 mg/kg, ig administered once daily via gavage for 15 days measured 24 hrs post-last dose by immunostaining based flow cytometry (reference value: 2.2%); format: functional
B16-F10 [3] = experiment: Antitumor activity against mouse B16/F10 cells implanted in BALB/c mouse assessed as tumor weight at 25 mg/kg, ig administered once daily via gavage for 15 days measured 24 hrs post-last dose (reference value: 0.84 +/- 0.32 g); format: functional
[4] = Toxicity in Sprague-Dawley rat at 1 mg/kg, iv; format: organism-based; conditions: in vivo
[5] = AUC (0 to t) in Sprague-Dawley rat at 1 mg/kg, iv by LC-MS/MS analysis; format: ADME, organism-based; conditions: in vivo
B16-F10 [6] = experiment: Antitumor activity against mouse B16/F10 cells implanted in BALB/c mouse assessed as tumor weight at 50 mg/kg, ig administered once daily via gavage for 15 days measured 24 hrs post-last dose (reference value: 0.84 +/- 0.32 g); format: functional
[7] = biological target: Programmed cell death protein 1/Programmed cell death 1 ligand 1 (Homo sapiens, UniProt Q9NZQ7); experiment: Inhibition of human PD1/PDL1 protein-protein interaction by HTRF assay; format: protein-complex assay
Mus musculus [8] = experiment: Effect on spleen helper T cell population in mouse B16/F10 cells implanted […] mouse assessed as CD3-positive/CD4-positive cell population at 25 mg/kg, ig administered once daily via gavage for 15 days measured 24 hrs post-last dose by immunostaining based flow cytometry (reference value: 27.7%); format: ADME, organism-based; conditions: in vivo, po
Mus musculus [9] = experiment: as §1, with “helper” for “activated cytotoxic”, “CD4-positive” for “CD8-positive”, “50” for “25”, “4.95%)” for “2.2%)”; format: functional
Mus musculus [10] = experiment: Immunostimulatory activity in mouse B16/F10 cells implanted […] mouse assessed as activation of tumor microenvironment by measuring increase in tumor infiltrating lymphocytes at 25 to 100 mg/kg, ig administered once daily via gavage for 15 days measured 24 hrs post last dose by H and E staining-based microscopic method; format: functional, organism-based
H22 = experiment: Antitumor activity against […] cells xenografted in BALB/c mouse assessed as tumor growth inhibition at 25 mg/kg, ip administered once daily 14 days relative to control; format: functional; conditions: 336 h, read-out: TGI
Mus musculus [11] = experiment: Effect on spleen helper T cell population in mouse B16/F10 cells implanted […] mouse assessed as CD3-positive cell population at 25 mg/kg, ig administered once daily via gavage for 15 days measured 24 hrs post-last dose by immunostaining based flow cytometry (reference value: 14.7%); format: organism-based; conditions: in vivo, po
Mus musculus [12] = experiment: Effect on activated cytotoxic T cell population in mouse B16/F10 cells implanted […] mouse assessed as spleen cell population at 50 mg/kg, ig administered once daily via gavage for 15 days measured 24 hrs post-last dose by immunostaining based flow cytometry (reference value: 57.9 %); format: organism-based; conditions: in vivo, po
MCF7 = experiment: Cytotoxicity against human MCF7 cells assessed as reduction in cell viability measured after 48 hrs by MTT assay; format: functional, cell-based; conditions: MCF7, 48 h
Mus musculus [13] = experiment: Effect on spleen helper T cell population in mouse B16/F10 cells implanted […] mouse assessed as CD3-positive cell population at 50 mg/kg, ig administered once daily via gavage for 15 days measured 24 hrs post-last dose by immunostaining based flow cytometry (reference value: 14.7%); format: organism-based; conditions: in vivo, po
Mus musculus [14] = experiment: as §1, with “CD3-positive” for “CD8-positive”, “50” for “25”, “20.8%)” for “2.2%)”; format: functional
[15] = Clearance in Sprague-Dawley rat at 10 mg/kg, po by LC-MS/MS analysis; format: ADME, organism-based; conditions: in vivo
[16] = Tmax in Sprague-Dawley rat at 10 mg/kg, po by LC-MS/MS analysis; format: ADME, organism-based; conditions: in vivo
[17] = Toxicity in mouse B16/F10 cells implanted […] mouse assessed as change in spleen weight at 25 to 100 mg/kg, ig administered once daily via gavage for 15 days measured 24 hrs post-last dose; format: organism-based; conditions: in vivo, po
Mus musculus [18] = experiment: as §1, with “50” for “25”; format: functional
Mus musculus [19] = experiment: Effect on activated cytotoxic T cell population in mouse B16/F10 cells implanted […] mouse assessed as spleen cell population at 25 mg/kg, ig administered once daily via gavage for 15 days measured 24 hrs post-last dose by immunostaining based flow cytometry (reference value: 57.9 %); format: organism-based; conditions: in vivo, po
Mus musculus [20] = experiment: as §1, with “CD3-positive/CD8-positive” for “CD8-positive”, “100” for “25”, “4.18%)” for “2.2%)”; format: functional
Mus musculus [21] = experiment: (§2) Effect on activated cytotoxic T cell population in mouse B16/F10 cells implanted […] mouse assessed as CD3-positive cell population in spleen at 25 mg/kg, ig administered once daily via gavage for 15 days measured 24 hrs post-last dose by immunostaining based flow cytometry (reference value: 27.5 %); format: organism-based; conditions: in vivo, po
Mus musculus [22] = experiment: Effect on activated cytotoxic T cell population in mouse B16/F10 cells implanted […] mouse assessed as CD3-positive/CD8-positive cell population in spleen at 25 mg/kg, ig administered once daily via gavage for 15 days measured 24 hrs post-last dose by immunostaining based flow cytometry (reference value: 14.2 %); format: organism-based; conditions: in vivo, po
Mus musculus [23] = experiment: as §1, with “CD3-positive” for “CD8-positive”, “20.8%)” for “2.2%)”; format: functional
Mus musculus [24] = experiment: as §1, with “helper” for “activated cytotoxic”, “melanoma” for “CD8-positive”, “70%)” for “2.2%)”; format: functional
B16-F10 [25] = experiment: Antitumor activity against mouse B16/F10 cells implanted in BALB/c mouse assessed as tumor weight at 100 mg/kg, ig administered once daily via gavage for 15 days measured 24 hrs post-last dose (reference value: 0.84 +/- 0.32 g); format: functional
[26] = Cmax in Sprague-Dawley rat at 1 mg/kg, iv by LC-MS/MS analysis; format: ADME, organism-based; design: dose 1 mg/kg, route intravenous; conditions: in vivo
[27] = Clearance in Sprague-Dawley rat at 1 mg/kg, iv by LC-MS/MS analysis; format: ADME, organism-based; conditions: in vivo
Mus musculus [28] = experiment: (§3) Effect on spleen helper T cell population in mouse B16/F10 cells implanted […] mouse assessed as CD4-positive cell population at 100 mg/kg, ig administered once daily via gavage for 15 days measured 24 hrs post-last dose by immunostaining based flow cytometry (reference value: 1.47 %); format: ADME, organism-based; conditions: in vivo, po
Mus musculus [29] = experiment: as §2, with “50” for “25”; format: organism-based; conditions: in vivo, po
Mus musculus [30] = experiment: Effect on spleen helper T cell population in mouse B16/F10 cells implanted […] mouse assessed as spleen cell population at 50 mg/kg, ig administered once daily via gavage for 15 days measured 24 hrs post-last dose by immunostaining based flow cytometry (reference value: 56.1 %); format: ADME, organism-based; conditions: in vivo, po
Mus musculus [31] = experiment: as §3, with “CD3-positive/CD4-positive” for “CD4-positive”, “27.7” for “1.47”; format: ADME, organism-based; conditions: in vivo, po

Sequence of Programmed cell death protein 1/Programmed cell death 1 ligand 1 (Q15116 whole entry): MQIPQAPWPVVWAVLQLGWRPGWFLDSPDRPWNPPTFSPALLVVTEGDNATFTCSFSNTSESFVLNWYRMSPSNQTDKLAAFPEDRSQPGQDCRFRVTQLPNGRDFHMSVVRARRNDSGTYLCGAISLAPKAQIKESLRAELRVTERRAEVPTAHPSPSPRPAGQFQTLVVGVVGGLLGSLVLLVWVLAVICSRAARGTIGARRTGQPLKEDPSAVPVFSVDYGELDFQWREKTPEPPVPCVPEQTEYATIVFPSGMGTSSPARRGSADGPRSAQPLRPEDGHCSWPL
Sequence of Programmed cell death protein 1/Programmed cell death 1 ligand 1 (Q9NZQ7 whole entry): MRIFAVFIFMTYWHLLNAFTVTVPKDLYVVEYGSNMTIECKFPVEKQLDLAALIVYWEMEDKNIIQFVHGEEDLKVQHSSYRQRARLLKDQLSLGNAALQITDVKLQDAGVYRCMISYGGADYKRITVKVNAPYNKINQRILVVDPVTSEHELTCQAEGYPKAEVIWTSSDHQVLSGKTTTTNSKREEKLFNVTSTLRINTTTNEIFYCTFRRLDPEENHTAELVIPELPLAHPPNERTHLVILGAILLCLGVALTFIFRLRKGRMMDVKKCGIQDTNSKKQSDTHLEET

- AUC(0-inf) [1]: 520 ng·h/mL
- AUC(0-t) [5]: 967 ng·h/mL
- Activity (Mus musculus [8]): 24.4%
- Activity (Mus musculus [11]): 13.8%
- Activity (Mus musculus [13]): 16.7%
- CL/F [15]: 385 mL/min/kg
- Tmax [16]: 36 min
- Cmax [26]: 1750 ng/mL
- clearance [27]: 15 mL/min/kg
- Activity (Mus musculus [28]): 1.78%
- Activity (Mus musculus [30]): 53.9%
- Activity (Mus musculus [31]): 25%
SMILES: Cc1c(COc2cc(OCc3cccc(C#N)c3)c(CNC(C)(C)C(=O)O)cc2Cl)cccc1-c1ccccc1
- Activity (Mus musculus [2]): 10.2%
- Activity (B16-F10 [3]): 0.41 g
- Activity [4]: Non-Toxic
- Activity (B16-F10 [6]): 0.21 g
- IC50 [7]: 12.5 nM
- Activity (Mus musculus [9]): 2.27%
- Activity (Mus musculus [10]): Active
- inhibition in vivo at 25 mg/kg (H22): 76.5%
- Activity (Mus musculus [12]): 55.4%
- IC50 (MCF7): > 10000 nM
- Activity (Mus musculus [14]): 14.5%
- Activity [17]: Non-Toxic
- Activity (Mus musculus [18]): 5.76%
- Activity (Mus musculus [19]): 62.7%
- Activity (Mus musculus [20]): 23%
- Activity (Mus musculus [21]): 24.3%
- Activity (Mus musculus [22]): 12.5%
- Activity (Mus musculus [23]): 18%
- Activity (Mus musculus [24]): 65.2%
- Activity (B16-F10 [25]): 0.16 g
- Activity (Mus musculus [29]): 28.8%

Reference: ChEMBL document CHEMBL4619786, “Discovery of Novel Resorcinol Dibenzyl Ethers Targeting the Programmed Cell Death-1/Programmed Cell Death-Ligand 1 Interaction as Potential Anticancer Agents” (J Med Chem, 2020)
